Laboratory results: US20210386706A1, “METHODS FOR THE TREATMENT OF SCLERODERMA” (Arena Pharmaceuticals, Inc., priority 2018, published 2021)

Assays:
[1] = target: T1, S1P1 (Homo sapiens, UniProt P21453); assay: cAMP assay; format: cell-based; conditions: read-out: ECK, cAMP
[2] = target: T1, S1P1; assay: β-arrestin assay S1P1; format: cell-based
[3] = target: S1P2 (Homo sapiens, UniProt O95136); assay: β-arrestin assay S1P2; format: cell-based
[4] = target: S1P3 (Homo sapiens, UniProt Q99500); assay: β-arrestin assay S1P3; format: cell-based
S1P3, sequence (Q99500 whole entry): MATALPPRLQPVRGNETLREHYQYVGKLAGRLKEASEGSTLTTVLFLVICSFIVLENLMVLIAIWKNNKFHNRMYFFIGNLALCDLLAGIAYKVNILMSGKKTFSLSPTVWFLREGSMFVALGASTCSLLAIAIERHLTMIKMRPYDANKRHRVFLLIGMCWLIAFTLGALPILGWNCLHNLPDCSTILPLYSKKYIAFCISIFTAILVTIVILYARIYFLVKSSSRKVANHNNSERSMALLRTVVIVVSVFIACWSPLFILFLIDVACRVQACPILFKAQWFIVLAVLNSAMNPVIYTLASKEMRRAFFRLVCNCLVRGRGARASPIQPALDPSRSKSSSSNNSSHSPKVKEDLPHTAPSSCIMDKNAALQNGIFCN

[5] = target: T2, S1P4 (Homo sapiens, UniProt O95977); assay: β-arrestin assay S1P4; format: cell-based
T2 sequence (O95977 1-384): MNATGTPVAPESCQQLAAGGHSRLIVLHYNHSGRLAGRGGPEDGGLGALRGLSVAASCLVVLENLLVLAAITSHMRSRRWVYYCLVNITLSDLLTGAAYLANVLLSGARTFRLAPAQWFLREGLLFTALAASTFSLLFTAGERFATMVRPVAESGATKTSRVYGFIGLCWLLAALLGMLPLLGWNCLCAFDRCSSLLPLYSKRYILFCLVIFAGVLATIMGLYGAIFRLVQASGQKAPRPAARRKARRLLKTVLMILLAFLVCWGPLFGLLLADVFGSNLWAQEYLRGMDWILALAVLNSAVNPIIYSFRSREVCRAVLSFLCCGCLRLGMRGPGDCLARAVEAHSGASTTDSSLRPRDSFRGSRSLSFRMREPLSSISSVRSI

[6] = target: S1P5 (Homo sapiens, UniProt Q9H228); assay: β-arrestin assay S1P5; format: cell-based
S1P5, sequence (Q9H228 whole entry): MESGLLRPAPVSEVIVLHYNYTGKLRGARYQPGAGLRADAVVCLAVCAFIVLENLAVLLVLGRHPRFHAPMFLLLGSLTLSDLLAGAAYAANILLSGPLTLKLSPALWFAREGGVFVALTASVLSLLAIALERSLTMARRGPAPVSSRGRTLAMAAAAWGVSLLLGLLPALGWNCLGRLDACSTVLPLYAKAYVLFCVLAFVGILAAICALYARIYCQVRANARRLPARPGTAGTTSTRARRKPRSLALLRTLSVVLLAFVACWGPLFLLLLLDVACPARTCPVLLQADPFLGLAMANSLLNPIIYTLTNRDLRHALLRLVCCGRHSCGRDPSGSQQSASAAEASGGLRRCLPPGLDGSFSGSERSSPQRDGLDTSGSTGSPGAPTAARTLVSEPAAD

[7] = tested on: bleomycin-induced skin fibrosis; assay: bleomycin-induced rodent model of skin fibrosis; format: in vivo, male C57BL/6 mice; conditions: mice, PO QD
Experimental: Compound 1 was evaluated in a bleomycin-induced rodent model of skin fibrosis. Skin fibrosis was induced in male C57BL/6 mice (6-7 weeks old; 20-25 g) with bleomycin injections at a concentration of 0.5 mg/ml via subcutaneous (SC) route. The mice received 100 μl of bleomycin at 0.5 mg/ml dissolved in PBS every other day for 21 days. The following treatments were randomly assigned: 1.) sham+vehicle (10% HBPCD/saline) per oral (PO) once daily (QD); 2.) bleomycin+vehicle (10% HBPCD/saline) PO QD; 3.) bleomycin+1 mg/kg Compound 1 PO QD; 4.) bleomycin+3 mg/kg Compound 1 PO QD; 5.) bleomycin+1 mg/kg FTY720 PO 3×/week; 6.) bleomycin+90 mg/kg FTY720 intraperitoneal (IP) QD (FIG. 1). Skin tissue was harvested post-mortem, with half of the biopsy specimen fixed in 4% wt/vol. paraformaldehyde for histology and the other half snap frozen for collagen analysis (hydroxyproline assay). Histological sections (4 μm) were cut from paraffin-embedded PFA-fixed lesional skin tissue. Sections were stained with haematoxylin and eosin (H&E) and Masson's Trichrome. Images were captured at ×100 microscopic magnification for histological dermal thickness determination. Collagen deposition (FIG. 2A), dermal thickness (FIG. 2B), tissue sections (FIG. 2C), dermal fibrosis (FIG. 3A), inflammation (FIG. 3B), and average epidermal thickness (FIG. 3C) were evaluated.

[8] = tested on: lymphocytes; assay: single ascending dose and multiple ascending dose studies in healthy subjects; format: in vivo

T1 sequence (P21453 whole entry): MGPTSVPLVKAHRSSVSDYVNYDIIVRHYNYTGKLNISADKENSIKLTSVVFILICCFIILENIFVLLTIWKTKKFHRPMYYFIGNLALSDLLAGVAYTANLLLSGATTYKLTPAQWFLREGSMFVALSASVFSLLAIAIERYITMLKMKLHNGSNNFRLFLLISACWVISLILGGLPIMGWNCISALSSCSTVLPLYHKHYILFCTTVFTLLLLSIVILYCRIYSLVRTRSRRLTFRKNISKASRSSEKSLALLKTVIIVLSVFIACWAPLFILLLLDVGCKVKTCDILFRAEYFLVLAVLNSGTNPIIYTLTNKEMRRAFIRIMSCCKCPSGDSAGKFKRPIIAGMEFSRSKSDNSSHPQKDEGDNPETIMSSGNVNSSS
S1P2, sequence (O95136 whole entry): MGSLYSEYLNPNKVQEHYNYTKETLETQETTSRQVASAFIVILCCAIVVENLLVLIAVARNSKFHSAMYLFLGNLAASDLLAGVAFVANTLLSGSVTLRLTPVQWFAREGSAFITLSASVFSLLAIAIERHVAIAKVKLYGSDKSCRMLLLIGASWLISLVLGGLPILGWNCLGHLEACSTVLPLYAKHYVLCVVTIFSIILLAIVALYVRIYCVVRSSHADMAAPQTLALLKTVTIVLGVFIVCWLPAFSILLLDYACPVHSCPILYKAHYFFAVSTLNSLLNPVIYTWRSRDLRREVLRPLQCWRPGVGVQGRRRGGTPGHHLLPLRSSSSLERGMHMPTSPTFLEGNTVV

For O=C(O)C[C@H]1CCc2c1[nH]c1ccc(OCc3ccc(C4CCCC4)c(C(F)(F)F)c3)cc21 [Compound 1, (R)-2-(7-(4-cyclopentyl-3-(trifluoromethyl)benzyloxy)-1,2,3,4-tetrahydrocyclopenta[b]indol-3-yl)acetic acid], which EC50 [1] is on record?
Its EC50 is 0.093 nM.

And the EC50 [2]?
Its EC50 is 6.1 nM.

What about the EC50 [3] of the same compound?
Its EC50 is over 10000 nM.

What about the EC50 [4] of the same compound?
Its EC50 is over 10000 nM.

What about the EC50 [5] of the same compound?
The EC50 was 147 nM.

And the EC50 [6]?
Its EC50 is 24.4 nM.

What about the dermal thickening ([7]; histology, FIG. 2B) of the same compound?
The dermal thickening was “significantly reduced”.

And the collagen deposition ([7]; hydroxyproline assay, FIG. 2A)?
The collagen deposition was “significantly reduced”.

What about the lymphocyte lowering [8] of the same compound?
Its lymphocyte lowering is “demonstrated the lymphocyte lowering capabilities”.
